Values joined by “and” are separate entries in the source; they are usually repeats but may differ in a detail not shown here. Identical values can stand only once. Inconclusive results and toxic doses are left out. Rule for the calls: active = survival T/C of 150% or more; inactive = T/C below 125% in these data.
System: CD2F1 mice, L1210 leukemia ip, survival T/C
Assay: NCI In Vivo Anticancer Drug Screen. Data for tumor model L1210 Leukemia (intraperitoneal) in CD2F1 (CDF1) mice
Details: higher = longer survival
Procedure, shortened: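 Read-out first: treated-group measurement over vehicle-control measurement, expressed as a ratio. Animals bore a transplanted tumor line and were dosed with compound or vehicle.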

[1] = endpoint: mean survival time, dose: 100.0 mg/kg/injection, schedule: Q04DX003 (ip), vehicle: saline sonified
[2] = endpoint: mean survival time, dose: 200.0 mg/kg/injection, schedule: Q04DX003 (ip), vehicle: saline sonified
[3] = endpoint: mean survival time, dose: 400.0 mg/kg/injection, schedule: Q04DX003 (ip), vehicle: saline sonified
[4] = endpoint: mean survival time, dose: 100.0 mg/kg/injection, schedule: Q01DX001 (ip), vehicle: saline
[5] = endpoint: mean survival time, dose: 200.0 mg/kg/injection, schedule: Q01DX001 (ip), vehicle: saline
[6] = endpoint: mean survival time, dose: 100.0 mg/kg/injection, schedule: Q04DX003 (ip), vehicle: saline
[7] = endpoint: mean survival time, dose: 200.0 mg/kg/injection, schedule: Q04DX003 (ip), vehicle: saline
[8] = endpoint: mean survival time, dose: 100.0 mg/kg/injection, schedule: Q01DX001 (ip), vehicle: saline with Tween-80
[9] = endpoint: mean survival time, dose: 200.0 mg/kg/injection, schedule: Q01DX001 (ip), vehicle: saline with Tween-80
[10] = endpoint: mean survival time, dose: 400.0 mg/kg/injection, schedule: Q01DX001 (ip), vehicle: saline with Tween-80
[11] = endpoint: mean survival time, dose: 100.0 mg/kg/injection, schedule: Q01DX009 (ip), vehicle: saline with Tween-80
[12] = endpoint: mean survival time, dose: 100.0 mg/kg/injection, schedule: Q04DX003 (ip), vehicle: saline with Tween-80
[13] = endpoint: mean survival time, dose: 200.0 mg/kg/injection, schedule: Q01DX009 (ip), vehicle: saline with Tween-80
[14] = endpoint: mean survival time, dose: 200.0 mg/kg/injection, schedule: Q04DX003 (ip), vehicle: saline with Tween-80
[15] = endpoint: mean survival time, dose: 400.0 mg/kg/injection, schedule: Q01DX009 (ip), vehicle: saline with Tween-80
[16] = endpoint: mean survival time, dose: 400.0 mg/kg/injection, schedule: Q04DX003 (ip), vehicle: saline with Tween-80
[17] = endpoint: mean survival time, dose: 50.0 mg/kg/injection, schedule: Q01DX009 (ip), vehicle: saline with Tween-80

Measured: T/C

CC1c2ccccc2C=CN1C (centres undefined)
inactive: [1] 95 % of control | [2] 106 % of control | [3] 105 % of control

Cc1ccccc1C(O)(c1ccccc1C)c1ccccc1C
inactive: endpoint: mean survival time, dose: 100.0 mg/kg/injection, schedule: Q04DX003 (ip), vehicle: acetone 96 % of control | endpoint: mean survival time, dose: 200.0 mg/kg/injection, schedule: Q04DX003 (ip), vehicle: acetone 98 % of control | endpoint: mean survival time, dose: 400.0 mg/kg/injection, schedule: Q04DX003 (ip), vehicle: acetone 98 % of control

CNNCCO
inactive: endpoint: mean survival time, dose: 50.0 mg/kg/injection, schedule: Q01DX001 (ip), vehicle: saline 104 % of control | [4] 101 % of control | [5] 101 % of control

c1ccc(OP(Oc2ccccc2)Oc2ccccc2)cc1
inactive: endpoint: mean survival time, dose: 50.0 mg/kg/injection, schedule: Q04DX003 (ip), vehicle: saline 98 % of control | [6] 104 % of control | [7] 96 % of control

CCC1(C#CCN2C(=O)c3ccccc3C2=O)C=CC2(CC1)OCCO2 (centres undefined)
inactive: [8] 101 % of control | [9] 93 % of control | [10] 91 % of control

CCOC(=O)NC(=O)OCC
inactive: endpoint: mean survival time, dose: 100.0 mg/kg/injection, schedule: Q01DX001 (ip), vehicle: saline sonified 102 % of control | endpoint: mean survival time, dose: 200.0 mg/kg/injection, schedule: Q01DX001 (ip), vehicle: saline sonified 107 % of control | endpoint: mean survival time, dose: 400.0 mg/kg/injection, schedule: Q01DX001 (ip), vehicle: saline sonified 100 % of control

CONC(=O)c1ccccc1N=NN(C)C
inactive: endpoint: mean survival time, dose: 18.75 mg/kg/injection, schedule: Q01DX009 (ip), vehicle: Klucel (hydroxypropylcellulose) (HPC) 117 % of control and 107 % of control | endpoint: mean survival time, dose: 37.5 mg/kg/injection, schedule: Q01DX009 (ip), vehicle: Klucel (hydroxypropylcellulose) (HPC) 117 % of control and 109 % of control | endpoint: mean survival time, dose: 75.0 mg/kg/injection, schedule: Q01DX009 (ip), vehicle: Klucel (hydroxypropylcellulose) (HPC) 101 % of control

N=c1cc([N+](=O)[O-])ccn1O
inactive: [4] 97 % of control | [5] 97 % of control | endpoint: mean survival time, dose: 400.0 mg/kg/injection, schedule: Q01DX001 (ip), vehicle: saline 105 % of control

O=[N+]([O-])c1ccc2c(c1)CS(=O)(=O)C2
inactive: [11] 101 % of control | [12] 96 % of control | [13] 101 % of control | [14] 90 % of control | [15] 101 % of control | [16] 96 % of control

Nc1ccnc(Oc2ccc(Cl)cc2)n1
inactive: [8] 104 % of control | [9] 104 % of control | [10] 98 % of control

Cc1c2cnccc2c(C)c2c1c1ccccc1n2CCNCCO
inactive: endpoint: mean survival time, dose: 50.0 mg/kg/injection, schedule: Q01DX009 (ip), vehicle: saline sonified 113 % of control | endpoint: mean survival time, dose: 100.0 mg/kg/injection, schedule: Q01DX009 (ip), vehicle: saline sonified 87 % of control

CN(C)CC1CCCCCC(Br)C1O (centres undefined)
inactive: endpoint: mean survival time, dose: 75.0 mg/kg/injection, schedule: Q01DX001 (ip), vehicle: saline 100 % of control | endpoint: mean survival time, dose: 150.0 mg/kg/injection, schedule: Q01DX001 (ip), vehicle: saline 94 % of control

O=c1[nH]c(=O)n(O)c2nc[nH]c12
inactive: endpoint: mean survival time, dose: 25.0 mg/kg/injection, schedule: Q01DX009 (ip), vehicle: saline with Tween-80 102 % of control | [17] 98 % of control

CC#CCOCC(O)CO (centres undefined)
inactive: endpoint: mean survival time, dose: 25.0 mg/kg/injection, schedule: Q01DX009 (ip), vehicle: water 98 % of control | endpoint: mean survival time, dose: 50.0 mg/kg/injection, schedule: Q01DX009 (ip), vehicle: water 107 % of control | endpoint: mean survival time, dose: 100.0 mg/kg/injection, schedule: Q01DX009 (ip), vehicle: water 104 % of control | endpoint: mean survival time, dose: 200.0 mg/kg/injection, schedule: Q01DX009 (ip), vehicle: water 115 % of control

CC(CP(=O)(c1ccccc1)c1ccccc1)C(O)(C(=O)c1ccccc1)c1ccccc1 (centres undefined)
inactive: [11] 95 % of control | [12] 97 % of control | [13] 97 % of control | [14] 94 % of control | [16] 102 % of control

O=C1CCC(=O)N1CCC1=NCCc2cc(OCc3ccccc3)ccc21
inactive: [11] 101 % of control | [12] 102 % of control | [13] 94 % of control | [14] 94 % of control | [15] 97 % of control | [16] 90 % of control

N#Cc1cc([N+](=O)[O-])ccc1Cl
inactive: [17] 96 % of control | [11] 91 % of control | [12] 105 % of control | [14] 103 % of control

COc1cc(C(=O)C=C(C(F)(F)F)C(F)(F)F)cc(OC)c1OC
inactive: [12] 101 % of control | [14] 98 % of control

Clc1ccc(C2c3ccccc3C[n+]3ccccc32)cc1 (centres undefined)
inactive: endpoint: mean survival time, dose: 12.5 mg/kg/injection, schedule: Q04DX003 (ip), vehicle: Klucel (hydroxypropylcellulose) (HPC) 93 % of control | endpoint: mean survival time, dose: 25.0 mg/kg/injection, schedule: Q04DX003 (ip), vehicle: Klucel (hydroxypropylcellulose) (HPC) 93 % of control

CCN(C(=O)C(F)(F)F)C(C)(C)C(SSSC(c1ccc(Cl)cc1)C(C)(C)N(CC)C(=O)C(F)(F)F)c1ccc(Cl)cc1 (centres undefined)
inactive: [6] 103 % of control | [7] 105 % of control | endpoint: mean survival time, dose: 400.0 mg/kg/injection, schedule: Q04DX003 (ip), vehicle: saline 86 % of control

CC(=O)NCCc1ccccc1
inactive: endpoint: mean survival time, dose: 100.0 mg/kg/injection, schedule: Q01DX009 (ip), vehicle: Klucel (hydroxypropylcellulose) (HPC) 109 % of control | [1] 103 % of control | endpoint: mean survival time, dose: 200.0 mg/kg/injection, schedule: Q01DX009 (ip), vehicle: Klucel (hydroxypropylcellulose) (HPC) 102 % of control | [2] 109 % of control | endpoint: mean survival time, dose: 400.0 mg/kg/injection, schedule: Q01DX009 (ip), vehicle: Klucel (hydroxypropylcellulose) (HPC) 104 % of control | [3] 97 % of control

CC(=O)NNC(=O)c1ccc2ccccc2n1
inactive: [17] 96 % of control | endpoint: mean survival time, dose: 50.0 mg/kg/injection, schedule: Q04DX003 (ip), vehicle: saline with Tween-80 107 % of control | [11] 104 % of control | [12] 103 % of control | [13] 111 % of control | [14] 101 % of control

CC1(C)OC2C(/C=N\O)OC(n3cnc4c(N)ncnc43)C2O1 (centres undefined)
inactive: endpoint: median survival time, dose: 12.5 mg/kg/injection, schedule: Q01DX005 (ip), vehicle: distilled water + Tween-80 98 % of control | endpoint: median survival time, dose: 25.0 mg/kg/injection, schedule: Q01DX005 (ip), vehicle: distilled water + Tween-80 90 % of control | endpoint: median survival time, dose: 50.0 mg/kg/injection, schedule: Q01DX005 (ip), vehicle: distilled water + Tween-80 96 % of control | endpoint: median survival time, dose: 100.0 mg/kg/injection, schedule: Q01DX005 (ip), vehicle: distilled water + Tween-80 101 % of control | endpoint: median survival time, dose: 200.0 mg/kg/injection, schedule: Q01DX005 (ip), vehicle: distilled water + Tween-80 101 % of control

S=C1NC(c2ccccc2)Nc2ccccc21 (centres undefined)
inactive: [12] 91 % of control | [14] 95 % of control

O=S(=O)(OC1CCCCC1Cl)c1ccc(Br)cc1 (centres undefined)
inactive: [12] 102 % of control | [14] 94 % of control | [16] 94 % of control

NCC(=O)Nc1ccc(O)cc1
inactive: endpoint: mean survival time, dose: 180.0 mg/kg/injection, schedule: Q04DX003 (ip), vehicle: saline 104 % of control | endpoint: mean survival time, dose: 405.0 mg/kg/injection, schedule: Q04DX003 (ip), vehicle: saline 98 % of control

ClCc1ccc2ccccc2n1
inactive: [11] 109 % of control | [12] 104 % of control | [13] 104 % of control | [14] 104 % of control | [16] 101 % of control

— PubChem BioAssay AID256 (DTP/NCI, 2004)
